Results as given in the NIST ThermoML archive (doi:10.1021/je049721u).
± gives the expanded uncertainty stated by the source.

Assay: mn = molality of the nth substance listed, in mol/kg
Settings: 101.3 kPa, Liquid; for speed of sound: Pulse-echo method

[Co+2].[O-][Cl+3]([O-])([O-])[O-].[O-][Cl+3]([O-])([O-])[O-] [cobalt(II) perchlorate] + CN(C)C=O
Settings	mass density, 283.15 K [kg/m3]	mass density, 293.15 K [kg/m3]	mass density, 298.15 K [kg/m3]	mass density, 303.15 K [kg/m3]	mass density, 313.15 K [kg/m3]	mass density, 323.15 K [kg/m3]	mass density, 333.15 K [kg/m3]	speed of sound, 298.15 K [m/s]
m1 = 0.02921	964.275 ± 0.58	954.785 ± 0.58	950.026 ± 0.59	945.273 ± 0.59	935.722 ± 0.6	926.127 ± 0.6	916.489 ± 0.61	1459.6 ± 1.4
m1 = 0.03591	965.673 ± 0.58	956.19 ± 0.58	951.432 ± 0.59	946.682 ± 0.59	937.135 ± 0.59	927.546 ± 0.6	917.907 ± 0.61	–
m1 = 0.05081	968.79 ± 0.58	959.315 ± 0.58	954.565 ± 0.58	949.82 ± 0.59	940.29 ± 0.59	930.711 ± 0.6	921.09 ± 0.6	1461.4 ± 1.4
m1 = 0.05902	970.508 ± 0.58	961.035 ± 0.58	956.29 ± 0.58	951.55 ± 0.59	942.021 ± 0.59	932.457 ± 0.6	922.843 ± 0.6	1462.1 ± 1.4
m1 = 0.08863	976.733 ± 0.58	967.283 ± 0.58	962.549 ± 0.58	957.809 ± 0.58	948.308 ± 0.59	938.77 ± 0.59	929.181 ± 0.6	1464.2 ± 1.5
m1 = 0.1167	982.692 ± 0.58	973.255 ± 0.58	968.53 ± 0.58	963.801 ± 0.58	954.319 ± 0.59	944.808 ± 0.59	935.256 ± 0.6	1466.5 ± 1.5
m1 = 0.1455	988.838 ± 0.57	979.414 ± 0.58	974.697 ± 0.58	969.98 ± 0.58	960.52 ± 0.58	951.034 ± 0.59	941.509 ± 0.59	1468.5 ± 1.5
m1 = 0.1735	994.845 ± 0.57	985.454 ± 0.58	980.747 ± 0.58	976.035 ± 0.58	966.596 ± 0.58	957.13 ± 0.59	947.626 ± 0.59	1471 ± 1.5
m1 = 0.2007	1000.8 ± 0.57	991.403 ± 0.58	986.7 ± 0.58	981.997 ± 0.58	972.578 ± 0.58	963.135 ± 0.58	953.661 ± 0.59	1472.8 ± 1.5
m1 = 0.2305	1007.33 ± 0.58	997.94 ± 0.58	993.248 ± 0.58	988.552 ± 0.58	979.153 ± 0.58	969.73 ± 0.58	960.286 ± 0.59	1475.4 ± 1.5
m1 = 0.2574	1013.28 ± 0.59	1003.91 ± 0.58	999.223 ± 0.58	994.536 ± 0.58	985.152 ± 0.58	975.753 ± 0.58	966.326 ± 0.59	1477.5 ± 1.5
m1 = 0.284	1019.22 ± 0.6	1009.86 ± 0.59	1005.18 ± 0.58	1000.5 ± 0.58	991.143 ± 0.58	981.766 ± 0.58	972.371 ± 0.58	1479.7 ± 1.5
